Tests used:
C32 [1] = assay: apoptotic fraction of cells (caspase-3 NucView488 positive); higher = more apoptosis
Experimental: (§1)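 BRAF V600E/D melanoma cell lines were seeded in 96-well plates, treated in 4 replicates with seven doses (3.16 nM to 3.16 uM) of RAF/MEK inhibitors for 24, 48 or 72 h, and stained with Hoechst 33342 (nuclei) and DEVD-NucView488 caspase-3 substrate. Plates were imaged on an Operetta. Relative viability is the cell count normalised to a DMSO-treated control; apoptosis fraction is the fraction of NucView488-positive nuclei.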

COLO858 = assay: as above
Experimental: as §1

RVH421 = assay: as above
Experimental: as §1

C32 [2] = assay: relative viability (cell count relative to DMSO-treated control) (fraction of DMSO control); higher = more viable cells / less drug effect
Experimental: as §1

LOXIMVI = assay: as above; settings: 24 h
Experimental: as §1

WM115 = assay: as above
Experimental: as §1

WM1552C = assay: as above
Experimental: as §1

CCCS(=O)(=O)Nc1ccc(F)c(C(=O)c2c[nH]c3ncc(Cl)cc23)c1F [PLX4720]
Settings | apoptotic fraction of cells, C32 [1] | apoptotic fraction of cells, COLO858 | apoptotic fraction of cells, RVH421 | relative viability, C32 [2] | relative viability, WM115 | relative viability, WM1552C
24 h, 0.00316 µM | 0.0873 | 0.0469 | 0.0586 | 0.98 | 1.14 | 1.02
24 h, 0.01 µM | 0.121 | 0.0452 | 0.0457 | 1 | 1.39 | 1.05
24 h, 0.0316 µM | 0.119 | 0.0424 | 0.0542 | 1.04 | 1.49 | 1.031
24 h, 0.1 µM | 0.153 | 0.0482 | 0.052 | 1.01 | 1.44 | 1.08
24 h, 0.316 µM | 0.174 | 0.0562 | 0.0578 | 0.942 | 1.58 | 1.02
24 h, 1 µM | 0.245 | 0.108 | 0.0478 | 0.824 | 1.02 | 1.064
24 h, 3.16 µM | 0.29 | 0.154 | 0.0574 | 0.693 | 1.14 | 0.9942
48 h, 0.00316 µM | 0.0967 | 0.0522 | 0.0464 | 1.11 | 1.25 | 0.976
48 h, 0.01 µM | 0.159 | 0.0523 | 0.062 | 0.905 | 1.37 | 0.994
48 h, 0.0316 µM | 0.158 | 0.0462 | 0.0512 | 0.929 | 1.32 | 1.01
48 h, 0.1 µM | 0.105 | 0.0498 | 0.05 | 1.01 | 1.83 | 0.977
48 h, 0.316 µM | 0.143 | 0.0785 | 0.058 | 0.857 | 1.67 | 0.839
48 h, 1 µM | 0.465 | 0.184 | 0.0593 | 0.454 | 1.24 | 0.795
48 h, 3.16 µM | 0.784 | 0.323 | 0.0831 | 0.155 | 0.792 | 0.723
72 h, 0.00316 µM | 0.0846 | 0.0883 | 0.0342 | 0.957 | 1.01 | 1.04
72 h, 0.01 µM | 0.0849 | 0.0826 | 0.035 | 1.08 | 1.03 | 1.13
72 h, 0.0316 µM | 0.0684 | 0.0717 | 0.0338 | 1.1 | 1.03 | 1.13
72 h, 0.1 µM | 0.0354 | 0.053 | 0.0375 | 0.937 | 1.06 | 1.03
72 h, 0.316 µM | 0.215 | 0.0842 | 0.0466 | 0.516 | 0.8596 | 0.83
72 h, 1 µM | 0.619 | 0.183 | 0.051 | 0.182 | 0.594 | 0.576
72 h, 3.16 µM | 0.813 | 0.374 | 0.0617 | 0.0669 | 0.302 | 0.497

LOXIMVI
Settings | relative viability
0.00316 µM | 0.917
0.01 µM | 0.969
0.0316 µM | 1.03
0.1 µM | 1.1
0.316 µM | 1.05
1 µM | 1.04
3.16 µM | 0.913

Cc1ccc(NC(=O)c2cccc(C(C)(C)C#N)c2)cc1Nc1ccc2ncn(C)c(=O)c2c1 [AZ628]
Settings | apoptotic fraction of cells, C32 [1] | apoptotic fraction of cells, COLO858 | apoptotic fraction of cells, RVH421 | relative viability, C32 [2] | relative viability, WM115 | relative viability, WM1552C
24 h, 0.00316 µM | 0.0886 | 0.0485 | 0.0557 | 1.09 | 1.19 | 0.959
24 h, 0.01 µM | 0.128 | 0.0403 | 0.0513 | 1.12 | 1.47 | 0.982
24 h, 0.0316 µM | 0.177 | 0.0435 | 0.04611 | 1.05 | 1.51 | 0.99
24 h, 0.1 µM | 0.226 | 0.0728 | 0.0493 | 1.02 | 1.53 | 1.01
24 h, 0.316 µM | 0.28 | 0.105 | 0.0559 | 0.87 | 1.37 | 0.974
24 h, 1 µM | 0.338 | 0.136 | 0.0518 | 0.757 | 0.87 | 0.996
24 h, 3.16 µM | 0.24 | 0.171 | 0.0578 | 0.877 | 0.946 | 0.928
48 h, 0.00316 µM | 0.0865 | 0.0518 | 0.0503 | 1.17 | 1.06 | 1.01
48 h, 0.01 µM | 0.103 | 0.0435 | 0.053 | 1.14 | 1.19 | 1
48 h, 0.0316 µM | 0.0851 | 0.0477 | 0.0555 | 1.01 | 1.47 | 0.964
48 h, 0.1 µM | 0.213 | 0.12 | 0.0583 | 0.793 | 1.31 | 0.772
48 h, 0.316 µM | 0.509 | 0.221 | 0.0645 | 0.428 | 1.11 | 0.665
48 h, 1 µM | 0.847 | 0.296 | 0.0779 | 0.109 | 0.658 | 0.647
48 h, 3.16 µM | 0.9051 | 0.436 | 0.108 | 0.0749 | 0.424 | 0.644
72 h, 0.00316 µM | 0.0829 | 0.0847 | 0.0338 | 0.992 | 1.03 | 1.03
72 h, 0.01 µM | 0.0581 | 0.0691 | 0.032 | 1.1 | 1.04 | 1.11
72 h, 0.0316 µM | 0.0379 | 0.0679 | 0.038 | 0.947 | 0.801 | 0.948
72 h, 0.1 µM | 0.301 | 0.109 | 0.0442 | 0.45 | 0.594 | 0.736
72 h, 0.316 µM | 0.676 | 0.225 | 0.0517 | 0.163 | 0.281 | 0.555
72 h, 1 µM | 0.886 | 0.381 | 0.105 | 0.059 | 0.172 | 0.484
72 h, 3.16 µM | 0.941 | 0.534 | 0.165 | 0.0269 | 0.0874 | 0.442

LOXIMVI
Settings | relative viability
0.00316 µM | 0.963
0.01 µM | 0.949
0.0316 µM | 0.956
0.1 µM | 0.942
0.316 µM | 0.86
1 µM | 0.862
3.16 µM | 0.822

CN(C)CCOc1ccc(-c2nc(-c3ccncc3)c(-c3ccc4c(c3)CC/C4=N\O)[nH]2)cc1
Settings | apoptotic fraction of cells, C32 [1] | apoptotic fraction of cells, COLO858 | apoptotic fraction of cells, RVH421 | relative viability, C32 [2] | relative viability, WM115 | relative viability, WM1552C
24 h, 0.00316 µM | 0.0901 | 0.0451 | 0.0543 | 1.07 | 1.06 | 0.999
24 h, 0.01 µM | 0.138 | 0.0421 | 0.0588 | 1.05 | 1.33 | 1.036
24 h, 0.0316 µM | 0.159 | 0.0423 | 0.0478 | 1.09 | 1.36 | 0.986
24 h, 0.1 µM | 0.194 | 0.0572 | 0.0495 | 1.05 | 1.4 | 1.08
24 h, 0.316 µM | 0.225 | 0.0792 | 0.0536 | 0.971 | 1.35 | 1.03
24 h, 1 µM | 0.24 | 0.123 | 0.062 | 0.842 | 1.15 | 1.088
24 h, 3.16 µM | 0.271 | 0.13 | 0.0619 | 0.779 | 1.28 | 1.05
48 h, 0.00316 µM | 0.0832 | 0.0512 | 0.05 | 1.2 | 1.31 | 1.01
48 h, 0.01 µM | 0.121 | 0.0508 | 0.0534 | 1.04 | 1.47 | 1.01
48 h, 0.0316 µM | 0.0893 | 0.0484 | 0.0615 | 1.03 | 1.54 | 0.994
48 h, 0.1 µM | 0.077 | 0.0742 | 0.0578 | 1.06 | 1.44 | 0.994
48 h, 0.316 µM | 0.189 | 0.153 | 0.0567 | 0.858 | 1.42 | 0.954
48 h, 1 µM | 0.38 | 0.237 | 0.0708 | 0.551 | 0.972 | 0.87
48 h, 3.16 µM | 0.524 | 0.341 | 0.0883 | 0.4 | 0.683 | 0.82
72 h, 0.00316 µM | 0.0657 | 0.0855 | 0.0342 | 1.1 | 1.03 | 1.03
72 h, 0.01 µM | 0.0532 | 0.0692 | 0.0346 | 1.19 | 1.02 | 1.16
72 h, 0.0316 µM | 0.0299 | 0.0676 | 0.0361 | 1.08 | 0.889 | 1.15
72 h, 0.1 µM | 0.0807 | 0.077 | 0.044 | 0.762 | 0.773 | 1.03
72 h, 0.316 µM | 0.274 | 0.141 | 0.0408 | 0.436 | 0.683 | 0.899
72 h, 1 µM | 0.474 | 0.268 | 0.0371 | 0.276 | 0.584 | 0.699
72 h, 3.16 µM | 0.542 | 0.424 | 0.033 | 0.209 | 0.573 | 0.616

LOXIMVI
Settings | relative viability
0.00316 µM | 0.935
0.01 µM | 1.01
0.0316 µM | 1.02
0.1 µM | 0.997
0.316 µM | 1.02
1 µM | 0.987
3.16 µM | 0.903

Reference: the supplement of paper PMC4380931
